# According to patent US9309263B2, “Fused multi-cyclic sulfone compounds as inhibitors of beta-secretase and methods of use thereof” (AMGEN INC., priority 2013, dated 2016):
# Where two headings read alike, the source gives them in different places.
# Tests used:
# [1] = biological target: Beta Secretase enzyme (BACE) (Homo sapiens, UniProt P56817); assay: In vitro enzymatic BACE FRET assay; type: biochemical; conditions: average IC50; read-out: BACE1 FRET assay IC50
# Summary of the method: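 Cleavage of a quenched 50 nM FRET peptide substrate, read as fluorescence (excitation 488 nm, […]) after 1 h and Tris quench to neutrality. Buffer: 0.05 M acetate pH 4.2 with 10% DMSO and 100 uM genapol. Inhibitor dilutions were pre-incubated 1 h with 0.2 nM enzyme.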
# [2] = system: Aβ 40 in conditioned medium of cells stably expressing Amyloid Precursor Protein (APP); assay: In vitro BACE cell-based assay (Aβ 40 sandwich ELISA); conditions: Homo sapiens, HEK293; HEK cell; average IC50
# Summary of the method: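 Aβ40 in conditioned medium measured by pAb40/biotin-6E10 sandwich ELISA with time-resolved europium fluorescence, after 24 h exposure of stable APP cells to compounds (10-point series starting 100 μM or 10 μM; 0.1% DMSO). IC50 fitted from percent of control against concentration.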
# Cathepsin D (Cat D) = Cathepsin D (Cat D) (Homo sapiens, UniProt P07339); assay: In vitro enzymatic Cathepsin D (Cat D) FRET assay; type: biochemical
# Summary of the method: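 FRET peptide substrate (20 nM) is cleaved by CHO-derived recombinant enzyme (9 nM) for 1 h after a 1 h inhibitor pre-incubation, at pH 3.5 in citrate buffer with 5 mM CHAPS and 10% DMSO. Tris addition ends the reaction; fluorescence measured at 500 nm excitation, 580 nm emission.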
# [3] = text summary referring to data in Table 2
# Chain of Beta Secretase enzyme (BACE) (P56817 46-501): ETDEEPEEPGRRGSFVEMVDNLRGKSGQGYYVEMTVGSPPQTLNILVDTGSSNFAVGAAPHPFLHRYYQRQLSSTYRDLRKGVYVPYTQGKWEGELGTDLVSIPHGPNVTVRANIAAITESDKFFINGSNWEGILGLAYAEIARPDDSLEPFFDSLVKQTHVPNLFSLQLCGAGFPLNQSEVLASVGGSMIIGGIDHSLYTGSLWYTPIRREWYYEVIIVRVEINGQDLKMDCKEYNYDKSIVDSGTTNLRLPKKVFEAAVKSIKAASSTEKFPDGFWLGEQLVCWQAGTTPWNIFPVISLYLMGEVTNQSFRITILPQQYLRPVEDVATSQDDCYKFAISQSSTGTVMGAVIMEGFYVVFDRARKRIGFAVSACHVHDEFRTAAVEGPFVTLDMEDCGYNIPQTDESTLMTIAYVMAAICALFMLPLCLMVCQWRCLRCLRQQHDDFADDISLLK
# Chain of Cathepsin D (Cat D) (P07339 65-412, species assumed): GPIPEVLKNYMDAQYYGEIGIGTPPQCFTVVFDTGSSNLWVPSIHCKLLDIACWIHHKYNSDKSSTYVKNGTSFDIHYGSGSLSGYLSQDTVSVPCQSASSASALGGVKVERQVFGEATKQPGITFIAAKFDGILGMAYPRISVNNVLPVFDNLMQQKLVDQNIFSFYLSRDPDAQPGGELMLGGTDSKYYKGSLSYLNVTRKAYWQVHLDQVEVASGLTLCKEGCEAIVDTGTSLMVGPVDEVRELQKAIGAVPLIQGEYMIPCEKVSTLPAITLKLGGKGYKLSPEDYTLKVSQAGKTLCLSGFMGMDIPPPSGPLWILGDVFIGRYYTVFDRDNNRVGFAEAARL
IC50 [1] [µM],IC50 [2] [µM],IC50 (Cathepsin D (Cat D); read-out: CatD IC50) [µM],IC50 (Cathepsin D (Cat D); [3]) [µM],Compound
0.018,0.005,5550,> 1200,"Cc1cc(OC(F)F)cnc1C(=O)Nc1ccc2c(c1)[C@@]1(C)N=C(N)C(C)(C)S(=O)(=O)[C@@H]1CCC2 [Example 41, N-((4aR,11bR)-2-amino-3,3,11b-trimethyl-4,4-dioxido-3,4a,5,6,7,11b-hexahydrobenzo[3,4]cyclohepta[1,2-b][1,4]thiazin-10-yl)-5-(difluoromethoxy)-3-methyl-2-pyridinecarboxamide]"
0.067,0.032,2980,> 1200,"COc1cnc(C(=O)Nc2ccc3c(c2)[C@@]2(C)N=C(N)C(C)(C)S(=O)(=O)[C@@H]2CCC3)c(C)c1 [Example 42, N-((4aR,11bR)-2-amino-3,3,11b-trimethyl-4,4-dioxido-3,4a,5,6,7,11b-hexahydrobenzo[3,4]cyclohepta[1,2-b][1,4]thiazin-10-yl)-5-methoxy-3-methyl-2-pyridinecarboxamide]"
0.012,0.019,458,–,"CC1(C)C(N)=N[C@]2(C)c3cc(NC(=O)c4ccc(Cl)cn4)ccc3CCC[C@H]2S1(=O)=O [Example 43, N-((4aR,11bR)-2-amino-3,3,11b-trimethyl-4,4-dioxido-3,4a,5,6,7,11b-hexahydrobenzo[3,4]cyclohepta[1,2-b][1,4]thiazin-10-yl)-5-chloro-2-pyridinecarboxamide]"
0.005,0.016,541,–,"CC1(C)C(N)=N[C@]2(C)c3cc(NC(=O)c4ncc(Cl)cc4Cl)ccc3CCC[C@H]2S1(=O)=O [Example 44, N-((4aR,11bR)-2-amino-3,3,11b-trimethyl-4,4-dioxido-3,4a,5,6,7,11b-hexahydrobenzo[3,4]cyclohepta[1,2-b][1,4]thiazin-10-yl)-3,5-dichloro-2-pyridinecarboxamide]"
0.018,0.006,1460,> 1200,"Cc1cc(C(F)(F)F)cnc1C(=O)Nc1ccc2c(c1)[C@@]1(C)N=C(N)C(C)(C)S(=O)(=O)[C@@H]1CCC2 [Example 45, N-((4aR,11bR)-2-amino-3,3,11b-trimethyl-4,4-dioxido-3,4a,5,6,7,11b-hexahydrobenzo[3,4]cyclohepta[1,2-b][1,4]thiazin-10-yl)-3-methyl-5-(trifluoromethyl)-2-pyridinecarboxamide]"
0.01,0.102,85.9,–,"CC1(C)C(N)=N[C@]2(C)c3cc(Nc4nccc5cc(Cl)cnc45)ccc3CCC[C@H]2S1(=O)=O [Example 46, (4aR,11bR)-N^~10^~-(3-chloro-1,7-naphthyridin-8-yl)-3,3,11b-trimethyl-3,4a,5,6,7,11b-hexahydrobenzo[3,4]cyclohepta[1,2-b][1,4]thiazine-2,10-diamine 4,4-dioxide]"
0.008,0.042,338,–,"CC1(C)C(N)=N[C@]2(C)c3cc(Nc4nccc5cc(C#N)cnc45)ccc3CCC[C@H]2S1(=O)=O [Example 47, 8-(((4aR,11bR)-2-amino-3,3,11b-trimethyl-4,4-dioxido-3,4a,5,6,7,11b-hexahydrobenzo[3,4]cyclohepta[1,2-b][1,4]thiazin-10-yl)amino)-1,7-naphthyridine-3-carbonitrile]"
0.041,0.041,393,–,"COc1cnc2c(Nc3ccc4c(c3)[C@@]3(C)N=C(N)C(C)(C)S(=O)(=O)[C@@H]3CCC4)nccc2n1 [Example 48, (4aR,11bR)-N^~10^~-(2-methoxypyrido[3,4-b]pyrazin-5-yl)-3,3,11b-trimethyl-3,4a,5,6,7,11b-hexahydrobenzo[3,4]cyclohepta[1,2-b][1,4]thiazine-2,10-diamine 4,4-dioxide]"
0.082,0.013,394,–,"Cc1c(C(=O)Nc2ccc3c(c2)[C@@]2(C)N=C(N)C(C)(C)S(=O)(=O)[C@@H]2CCC3)nc2ccc(Cl)cn12 [Example 49, N-((4aR,11bR)-2-amino-3,3,11b-trimethyl-4,4-dioxido-3,4a,5,6,7,11b-hexahydrobenzo[3,4]cyclohepta[1,2-b][1,4]thiazin-10-yl)-6-chloro-3-methylimidazo[1,2-a]pyridine-2-carboxamide]"
0.0007,0.0002,120,–,"CC#CCOc1cnc(C(=O)Nc2ccc3c(c2)[C@@]2(C)N=C(N)C(C)(C)S(=O)(=O)[C@@H]2CCC3)cn1 [Example 50, N-((4aR,11bR)-2-amino-3,3,11b-trimethyl-4,4-dioxido-3,4a,5,6,7,11b-hexahydrobenzo[3,4]cyclohepta[1,2-b][1,4]thiazin-10-yl)-5-(2-butyn-1-yloxy)-2-pyrazinecarboxamide]"
0.001,0.0004,461,–,"CC#CCOc1cnc(C(=O)Nc2ccc3c(c2)[C@@]2(C)N=C(N)C(C)(C)S(=O)(=O)[C@@H]2C[C@H](C)O3)cn1 [Example 51, N-((4aR,6S,11bR)-2-amino-3,3,6,11b-tetramethyl-4,4-dioxido-4a,5,6,11b-tetrahydro-3H-[1]benzoxepino[4,5-b][1,4]thiazin-10-yl)-5-(2-butyn-1-yloxy)-2-pyrazinecarboxamide]"
0.014,0.022,174,–,"COc1cnc2c(Nc3ccc4c(c3)[C@@]3(C)N=C(N)C(C)(C)S(=O)(=O)[C@@H]3C[C@H](C)O4)ncc(F)c2c1 [Example 52, (4aR,6S,11bR)-N^~10^~-(5-fluoro-3-methoxy-1,7-naphthyridin-8-yl)-3,3,6,11b-tetramethyl-4a,5,6,11b-tetrahydro-3H-[1]benzoxepino[4,5-b][1,4]thiazine-2,10-diamine 4,4-dioxide]"
0.032,0.011,977,> 800,"COc1cnc2c(Nc3ccc4c(c3)[C@@]3(C)N=C(N)C(C)(C)S(=O)(=O)[C@@H]3C[C@H](C)O4)nccc2n1 [Example 53, (4aR,6S,11bR)-N^~10^~-(2-methoxypyrido[3,4-b]pyrazin-5-yl)-3,3,6,11b-tetramethyl-4a,5,6,11b-tetrahydro-3H-[1]benzoxepino[4,5-b][1,4]thiazine-2,10-diamine 4,4-dioxide]"
0.002,0.0007,1460,> 1200,"Cc1cc(C#N)cnc1C(=O)Nc1ccc2c(c1)[C@@]1(C)N=C(N)C(C)(C)S(=O)(=O)[C@@H]1C[C@H](C)O2 [Example 57, N-((4aR,6S,11bR)-2-amino-3,3,6,11b-tetramethyl-4,4-dioxido-4a,5,6,11b-tetrahydro-3H-[1]benzoxepino[4,5-b][1,4]thiazin-10-yl)-5-cyano-3-methyl-2-pyridinecarboxamide]"
0.014,0.011,656,–,"Cc1cc(Cl)cnc1C(=O)Nc1cnc2c(c1)[C@@]1(C)N=C(N)C3(CCC3)S(=O)(=O)[C@H]1CCO2 [Example 58, N-((4a′S,11b′R)-2′-amino-11b′-methyl-4′,4′-dioxido-4a′,5′,6′,11b′-tetrahydrospiro[cyclobutane-1,3′-pyrido[3′,2′:6,7]oxepino[4,5-b][1,4]thiazin]-10′-yl)-5-chloro-3-methyl-2-pyridinecarboxamide]"
0.05,0.057,> 400,–,"Cc1cc(Cl)cnc1C(=O)Nc1cnc2c(c1)[C@@]1(C)N=C(N)C3(CCC3)S(=O)(=O)[C@@H]1CCO2 [Example 59, N-((4a′R,11b′R)-2′-amino-11b′-methyl-4′,4′-dioxido-4a′,5′,6′,11b′-tetrahydrospiro[cyclobutane-1,3′-pyrido[3′,2′:6,7]oxepino[4,5-b][1,4]thiazin]-10′-yl)-5-chloro-3-methyl-2-pyridinecarboxamide]"
0.037,0.135,> 400,–,COc1cnc2c(Nc3cnc4c(c3)[C@@]3(C)N=C(N)C5(CCC5)S(=O)(=O)[C@@H]3CCO4)nccc2n1 [Example 60]
0.018,0.125,680,–,C[C@]12N=C(N)C3(CCC3)S(=O)(=O)[C@@H]1CCOc1ncc(Nc3nccc4cc(Cl)cnc34)cc12 [Example 61]
0.015,0.06,> 400,–,"Cc1cc(C#N)cnc1C(=O)Nc1cnc2c(c1)[C@@]1(C)N=C(N)C3(CCC3)S(=O)(=O)[C@@H]1CCO2 [Example 62, N-((4a′R,11b′R)-2′-amino-11b′-methyl-4′,4′-dioxido-4a′,5′,6′,11b′-tetrahydrospiro[cyclobutane-1,3′-pyrido[3′,2′:6,7]oxepino[4,5-b][1,4]thiazin]-10′-yl)-5-cyano-3-methyl-2-pyridinecarboxamide]"
0.036,0.164,868,> 800,"C[C@]12N=C(N)C3(CCC3)S(=O)(=O)[C@@H]1CCOc1ncc(NC(=O)c3ccc(C#N)cn3)cc12 [Example 63, N-((4a′R,11b′R)-2′-amino-1113′-methyl-4′,4′-dioxido-4a′,5′,6′,11b′-tetrahydrospiro[cyclobutane-1,3′-pyrido[3′,2′:6,7]oxepino[4,5-b][1,4]thiazin]-10′-yl)-5-cyano-2-pyridinecarboxamide]"
